Columns and labels:
[1] = test system: Trypanosoma brucei brucei; assay: MMV: Inhibition of Trypanosoma brucei brucei (Squib 427) (HAT in vitro).; assay type: functional, organism-based
Leishmania infantum = assay: MMV: Inhibition of Leishmania infantum (MHOM/MA/BE/67) in vitro.; assay type: functional, organism-based
[2] = MMV: Cytotoxicity against human fibroblasts (MRC-5) cells.; conditions: MRC-5 cells (human fibroblasts)
Plasmodium falciparum [3] = assay: MMV: Inhibition of Plasmodium falciparum 3D7 (EC50).; assay type: functional, organism-based
Trypanosoma cruzi = assay: MMV: Inhibition of Trypanosoma cruzi (Tulahuen C4 LacZ) (Chagas in vitro).; assay type: functional, organism-based
[4] = test system: Trypanosoma brucei rhodesiense; assay: MMV: Inhibition of Trypanosoma brucei rhodesiense (STIB 900) (HAT in vitro).; assay type: functional, organism-based
Plasmodium falciparum [5] = assay: MMV: Inhibition of Plasmodium falciparum 3D7 at 5uM compound concentration.; assay type: functional

SMILES: CCOc1cc(CNC(C)C(O)c2ccccc2)cc(Cl)c1OCC (centres undefined)
- IC50 [1]: 11.5 µM
- IC50 (Leishmania infantum): 16.6 µM
- IC50 [2]: > 32 µM
- EC50 (Plasmodium falciparum [3]): 1.24 µM
- IC50 (Trypanosoma cruzi): 25.4 µM
- IC50 [4]: 8.67 µM

SMILES: Nc1nc(Nc2cccc(F)c2)nc2ccccc12
- IC50 [1]: 27.3 µM
- IC50 (Leishmania infantum): 16 µM
- IC50 [2]: > 32 µM
- EC50 (Plasmodium falciparum [3]): 1 µM
- IC50 (Trypanosoma cruzi): 20.2 µM
- IC50 [4]: 16.8 µM

SMILES: CCOc1c(Cl)cc(CNCC(O)c2ccccc2)cc1OC (centres undefined)
- IC50 [1]: 11.9 µM
- IC50 (Leishmania infantum): > 32 µM
- IC50 [2]: > 32 µM
- EC50 (Plasmodium falciparum [3]): 1.05 µM
- IC50 (Trypanosoma cruzi): > 32 µM
- IC50 [4]: 16.1 µM

SMILES: COc1ccc2nc(C)cc(Nc3ccccc3O)c2c1
- IC50 [1]: > 32 µM
- IC50 (Leishmania infantum): > 32 µM
- IC50 [2]: > 32 µM
- EC50 (Plasmodium falciparum [3]): 0.686 µM
- IC50 (Trypanosoma cruzi): > 32 µM
- IC50 [4]: > 32 µM

SMILES: COc1ccc(-c2nc(N3CCN(C(=O)C4CCCCC4)CC3)c3c4c(sc3n2)CCCC4)cc1
- IC50 [1]: 4.09 µM
- IC50 (Leishmania infantum): 4.32 µM
- IC50 [2]: > 32 µM
- EC50 (Plasmodium falciparum [3]): 1.06 µM
- IC50 (Trypanosoma cruzi): 7.45 µM
- IC50 [4]: 4.07 µM

SMILES: Cc1cc(C)cc(Nc2cc(C)nc3nc(C(F)(F)F)nn23)c1
- IC50 [1]: > 32 µM
- IC50 (Leishmania infantum): > 32 µM
- IC50 [2]: > 32 µM
- EC50 (Plasmodium falciparum [3]): 0.0857 µM
- IC50 (Trypanosoma cruzi): > 32 µM
- IC50 [4]: > 32 µM

SMILES: CCn1nc(-c2ccc(C(=O)OC)cc2)nc2c(=O)n(C)c(=O)nc1-2
- IC50 [1]: 0.28 µM
- IC50 (Leishmania infantum): 4.06 µM
- IC50 [2]: 3.53 µM
- EC50 (Plasmodium falciparum [3]): 0.693 µM
- IC50 (Trypanosoma cruzi): 0.81 µM
- IC50 [4]: 0.803 µM

SMILES: CCOc1ccccc1CN1CCc2nc3cc(C(C)(C)C)nn3c(O)c2C1
- IC50 [1]: 28.9 µM
- IC50 (Leishmania infantum): > 32 µM
- IC50 [2]: > 32 µM
- EC50 (Plasmodium falciparum [3]): 1.01 µM
- IC50 (Trypanosoma cruzi): > 32 µM
- IC50 [4]: > 32 µM

SMILES: O=C(NC1CCN(Cc2ccccc2)CC1)c1cc2nc(-c3ccc(Cl)s3)cc(C(F)(F)F)n2n1
- IC50 [1]: > 32 µM
- IC50 (Leishmania infantum): 16 µM
- IC50 [2]: > 32 µM
- EC50 (Plasmodium falciparum [3]): 0.959 µM
- IC50 (Trypanosoma cruzi): > 32 µM
- IC50 [4]: > 32 µM

SMILES: Cc1sc(NC(=O)c2ccccc2)c(C(c2cccs2)N2CCN(c3ccccc3)CC2)c1C (centres undefined)
- IC50 [1]: 6.32 µM
- IC50 (Leishmania infantum): 12.7 µM
- IC50 [2]: > 32 µM
- EC50 (Plasmodium falciparum [3]): 1.18 µM
- IC50 (Trypanosoma cruzi): > 32 µM
- IC50 [4]: 4 µM

SMILES: CCOC(=O)c1cnc2ccc(CC)cc2c1O
- IC50 [1]: > 32 µM
- IC50 (Leishmania infantum): > 32 µM
- IC50 [2]: > 32 µM
- EC50 (Plasmodium falciparum [3]): 0.351 µM
- IC50 (Trypanosoma cruzi): > 32 µM
- IC50 [4]: > 32 µM

SMILES: CCN(CC)CCNc1ccnc2cc(Cl)ccc12
- IC50 [1]: 10.2 µM
- IC50 (Leishmania infantum): 17.3 µM
- IC50 [2]: > 32 µM
- EC50 (Plasmodium falciparum [3]): 0.0581 µM
- IC50 (Trypanosoma cruzi): 6.35 µM
- IC50 [4]: 10.3 µM

SMILES: Cc1cc(Nc2ccc3ccccc3c2)n2ncnc2n1
- IC50 [1]: > 32 µM
- IC50 (Leishmania infantum): > 32 µM
- IC50 [2]: > 32 µM
- EC50 (Plasmodium falciparum [3]): 0.242 µM
- IC50 (Trypanosoma cruzi): > 32 µM
- IC50 [4]: > 32 µM

SMILES: COc1cccc(Nc2nc(NCCO)c3ccccc3n2)c1
- IC50 [1]: 14.3 µM
- IC50 (Leishmania infantum): 4.32 µM
- IC50 [2]: 26.3 µM
- EC50 (Plasmodium falciparum [3]): 0.854 µM
- IC50 (Trypanosoma cruzi): 13.3 µM
- IC50 [4]: 6.75 µM

SMILES: O=C(O)C1Cc2c([nH]c3ccccc23)C(c2ccc(Cl)cc2Cl)N1 (centres undefined)
- IC50 [1]: > 32 µM
- IC50 (Leishmania infantum): > 32 µM
- IC50 [2]: > 32 µM
- EC50 (Plasmodium falciparum [3]): 0.35 µM
- IC50 (Trypanosoma cruzi): > 32 µM
- IC50 [4]: > 32 µM

SMILES: COCCNCC(O)Cn1c2ccc(Cl)cc2c2cc(Cl)ccc21 (centres undefined)
- IC50 [1]: 0.711 µM
- IC50 (Leishmania infantum): 2.97 µM
- IC50 [2]: 4.81 µM
- EC50 (Plasmodium falciparum [3]): 1.01 µM
- IC50 (Trypanosoma cruzi): 3.89 µM
- IC50 [4]: 0.357 µM

SMILES: O=c1nc(C=Cc2ccc(Br)cc2)oc2ccccc12
- IC50 [1]: 16 µM
- IC50 (Leishmania infantum): 4.06 µM
- inhibition at 5 µM (Plasmodium falciparum [5]): 94%
- IC50 [2]: 4 µM
- IC50 (Trypanosoma cruzi): 4.17 µM
- IC50 [4]: 16.1 µM

SMILES: CCN(CC)CCNc1ccnc2cc3ccccc3cc12
- IC50 [1]: 4.06 µM
- IC50 (Leishmania infantum): 4.32 µM
- IC50 [2]: 12.2 µM
- EC50 (Plasmodium falciparum [3]): 0.391 µM
- IC50 (Trypanosoma cruzi): 14.8 µM
- IC50 [4]: 3.94 µM

SMILES: COc1ccc(Nc2cc(C)nc(NCc3ccccc3)n2)cc1
- IC50 [1]: 2.95 µM
- IC50 (Leishmania infantum): 4.32 µM
- IC50 [2]: 13.5 µM
- EC50 (Plasmodium falciparum [3]): 0.467 µM
- IC50 (Trypanosoma cruzi): 1.04 µM
- IC50 [4]: 3.86 µM

SMILES: COc1ccc2c(c1)OC(O)(C(F)(F)C(F)(F)F)CC2=O (centres undefined)
- IC50 [1]: > 32 µM
- IC50 (Leishmania infantum): 25.4 µM
- IC50 [2]: 25.6 µM
- EC50 (Plasmodium falciparum [3]): 0.283 µM
- IC50 (Trypanosoma cruzi): 16.1 µM
- IC50 [4]: 17.1 µM

SMILES: CCN(CC)CCNc1ncnc2c1[nH]c1ccc(Br)cc12
- IC50 [1]: 16.3 µM
- IC50 (Leishmania infantum): 16 µM
- IC50 [2]: > 32 µM
- EC50 (Plasmodium falciparum [3]): 0.707 µM
- IC50 (Trypanosoma cruzi): 17.1 µM
- IC50 [4]: 16 µM

SMILES: Cc1cc(N(C)C)nc(Nc2ccc(NC(=O)Nc3ccccc3)cc2)n1
- IC50 [1]: 5.54 µM
- IC50 (Leishmania infantum): 4.32 µM
- IC50 [2]: 23.8 µM
- EC50 (Plasmodium falciparum [3]): 1.15 µM
- IC50 (Trypanosoma cruzi): 1.03 µM
- IC50 [4]: 1.25 µM

SMILES: CN(C)c1ccc(-c2nc3cc(N)ccc3[nH]2)cc1
- IC50 [1]: 19.6 µM
- IC50 (Leishmania infantum): > 32 µM
- inhibition at 5 µM (Plasmodium falciparum [5]): 64%
- IC50 [2]: > 32 µM
- IC50 (Trypanosoma cruzi): 17.4 µM
- IC50 [4]: 18 µM

SMILES: CCCC(c1nnnn1C1CCCCC1)N1CCN(C(=O)c2ccco2)CC1 (centres undefined)
- IC50 [1]: > 32 µM
- IC50 (Leishmania infantum): > 32 µM
- inhibition at 5 µM (Plasmodium falciparum [5]): 82%
- IC50 [2]: > 32 µM
- IC50 (Trypanosoma cruzi): > 32 µM
- IC50 [4]: > 32 µM

SMILES: CC(C)(C)c1ccc(C(=O)Nc2c3c(nn2-c2cccc(Cl)c2)CSC3)cc1
- IC50 [1]: 16.1 µM
- IC50 (Leishmania infantum): > 32 µM
- inhibition at 5 µM (Plasmodium falciparum [5]): 93%
- IC50 [2]: > 32 µM
- IC50 (Trypanosoma cruzi): > 32 µM
- IC50 [4]: > 32 µM

SMILES: Oc1ccc(Br)cc1CN1CCN(Cc2cccc(F)c2)CC1
- IC50 [1]: > 32 µM
- IC50 (Leishmania infantum): 25.4 µM
- IC50 [2]: > 32 µM
- EC50 (Plasmodium falciparum [3]): 1.03 µM
- IC50 (Trypanosoma cruzi): 12.6 µM
- IC50 [4]: 16.7 µM

SMILES: Clc1ccc2[nH]c3c(NCCCN4CCOCC4)ncnc3c2c1
- IC50 [1]: > 32 µM
- IC50 (Leishmania infantum): > 32 µM
- IC50 [2]: > 32 µM
- EC50 (Plasmodium falciparum [3]): 0.7 µM
- IC50 (Trypanosoma cruzi): 21.3 µM
- IC50 [4]: 3.94 µM

SMILES: COc1ccc(Nc2nc(NCc3ccccc3)c3ccccc3n2)cc1
- IC50 [1]: 3.84 µM
- IC50 (Leishmania infantum): 1.01 µM
- IC50 [2]: 12.4 µM
- EC50 (Plasmodium falciparum [3]): 0.589 µM
- IC50 (Trypanosoma cruzi): 3.55 µM
- IC50 [4]: 4.03 µM

SMILES: Cc1cc(Nc2ccc(Cl)cc2)n2nc(C(F)(F)F)nc2n1
- IC50 [1]: > 32 µM
- IC50 (Leishmania infantum): > 32 µM
- IC50 [2]: > 32 µM
- EC50 (Plasmodium falciparum [3]): 0.212 µM
- IC50 (Trypanosoma cruzi): > 32 µM
- IC50 [4]: > 32 µM

SMILES: COc1cc2c(cc1OC)C1=NNC(=O)C1=NC(C)(C)C2
- IC50 [1]: 12.9 µM
- IC50 (Leishmania infantum): 4.03 µM
- IC50 [2]: > 32 µM
- EC50 (Plasmodium falciparum [3]): 1.04 µM
- IC50 (Trypanosoma cruzi): 3.59 µM
- IC50 [4]: 6.64 µM

SMILES: CCCc1c(C)nc2ccccc2c1O
- IC50 [1]: > 32 µM
- IC50 (Leishmania infantum): > 32 µM
- inhibition at 5 µM (Plasmodium falciparum [5]): 88%
- IC50 [2]: > 32 µM
- IC50 (Trypanosoma cruzi): > 32 µM
- IC50 [4]: > 32 µM

SMILES: Cc1cc(N2CCN(C3CCCC3)CC2)n2c(nc3ccccc32)c1C#N
- IC50 [1]: > 32 µM
- IC50 (Leishmania infantum): > 32 µM
- IC50 [2]: > 32 µM
- EC50 (Plasmodium falciparum [3]): 0.683 µM
- IC50 (Trypanosoma cruzi): > 32 µM
- IC50 [4]: > 32 µM

SMILES: Cc1ccc(Nc2nc(NCCO)c3ccccc3n2)cc1C
- IC50 [1]: 8.22 µM
- IC50 (Leishmania infantum): 2.52 µM
- IC50 [2]: 11.4 µM
- EC50 (Plasmodium falciparum [3]): 0.428 µM
- IC50 (Trypanosoma cruzi): 2.99 µM
- IC50 [4]: 3.83 µM

SMILES: CN1CCN(c2nc(Nc3ccc(O)cc3)nc3ccccc23)CC1
- IC50 [1]: 4.69 µM
- IC50 (Leishmania infantum): 13.6 µM
- IC50 [2]: > 32 µM
- EC50 (Plasmodium falciparum [3]): 1.43 µM
- IC50 (Trypanosoma cruzi): 11.1 µM
- IC50 [4]: 3.28 µM

— ChEMBL document CHEMBL2028040, “Malaria Box”
